One assay concerns BLM cells. The experiment in a line: In vivo study in nude mice inoculated with malignant melanoma, low dosage experiment. Conditions: 100 μg per mouse daily, 2-3 weeks. As for the experimental part: Sixteen male nude mice were injected s.c. in the flank with 1×10^6 (0.2 ml/mouse) BLM cells. The treatment started the same day: Eight mice received daily 100 μg […]® per mouse in 200 μl saline. Eight control mice were treated with 200 μl saline each. The treatment lasted 2-3 weeks. Every 2 to 3 days the volume of the tumors was determined by caliper.

In the next assay the test system is BLM melanoma cells. Kind of assay: Chemomigration assay (Boyden's chamber). Format: cell-based, human. Conditions: 10^−6 M pretreatment for 5 days, FBS 5%. As for the experimental part:
The assay was performed using a 48-well Boyden's chamber, according to the manufacturer's instruction (Neuroprobe, Cabin John, Md.). Subconfluent BLM cells, grown in culture medium, were pretreated for 5 days with LHRH-A (10^−6 M) and harvested at the end of the treatment. BLM cell suspensions (10^5 cells/50 μL), resuspended in culture medium deprived of FBS, were placed in the open-bottom wells of the upper compartment of the chamber. Each pair of wells were separated by polyvinylpyrrolidone-free polycarbonate porous membrane (8-μm pores) pre-coated with gelatin (0.2 mg/mL in PBS). The chemoattractant (FBS 5%) was placed in the lower compartment of the chamber. The chamber was then kept for 4 h in the cell culture incubator. After that, the cells migrated through the pores, and adhered to the underside of the membrane, were fixed, stained (Diff-Quick kit, DADE, Dudingen, CH) and mounted onto glass slides. For quantitative analysis, six random objective fields of stained cells were counted for each well (8 wells/experimental group) and the mean number of migrating cells/mm^2 was calculated. The data obtained from four independent experiments were compared by ANOVA and Dunnett's test.

A further assay has as its system Me15392 melanoma cells. The experiment in a line: Cell proliferation studies, Me15392 cells. The assay is classed as cell-based, human. Conditions: 10^−11-10^−6 M, 7 days. As for the experimental part:
The antiproliferative action of GnRH agonists on melanoma cells is further investigated in another melanoma cell line (Me15392). These experiments have been carried out as described above for BLM cells (same GnRH agonist, same doses of the drug and same length of treatment, etc.). All proliferation experiments were performed in four to six replicates. The data obtained from three independent experiments were analyzed according to the Dunnett's test after one-way ANOVA.

The subject of assay [1] is malignant gliomas U-87MG and U-373MG. The experiment in a line: In vivo study with tumor-implanted nude mice (Example 4). To be noted: daily dosages. As for the experimental part: An effect of the treatment of tumor-implanted nude mice (Pinski et al., supra) each with one of the GnRH agonists Buserelin, Triptorelin, Goserelin, and Leuprorelin and each with one of the GnRH antagonists Cetrorelix® (SB-75), Antarelix®, Antide®, and Ramorelix® on the growth of malignant gliomas U-87MG and U-373MG was carried out using daily dosages and controls in nude mice using analysis techniques described for the determination of the efficacy of similar peptides in Pinski et al., supra.

For assay [2], the system named is BLM melanoma tumor cell line implant. Format: in vivo, nude mice. As for the experimental part: In one series of experiments, nude mice bearing human melanoma tumor cell line xenotransplants were treated for two weeks with 100 μg of Goserelin daily, while a second group of mice was administered 200 μg of Goserelin daily, with an additional daily supplement given by subcutaneous injection. […] The in vivo tumor growth has three predominant characteristics: mitotic activity, dedifferentiation, and infiltration of cells into the surrounding tissue and vessels.
Results for this study are depicted in FIG. 21. These observations are in line with the previously shown inhibition of Matrigel invasion of BLM cells under Zoladex treatment, as described above. A histological investigation of the tumor before and after treatment has confirmed this finding (results not shown).
In another set of experiments, ZOLADEX® treatment was administered to mice for a period of four to eight weeks, with an additional GnRH antagonist treatment to avoid any tumor proliferation (i.e. flare up) following cessation of the therapy and to avoid tumor cell receptor depletion.

Assay [3] has as its system human glioblastoma cell lines U-87MG or U-373MG, Kaposi sarcoma cell lines KSY-1 or KS-SLK, malignant melanoma cell line MV3 or BLM, medulloblastoma cell line …. The experiment in a line: Proliferation assay on cell cultures (Example 3). The assay is classed as cell-based. To be noted: cell lines of Example 3 treated with the substance.

Take `CC(C)C[C@H](NC(=O)[C@@H](COC(C)(C)C)NC(=O)[C@H](Cc1ccc(O)cc1)NC(=O)[C@H](CO)NC(=O)[C@H](Cc1c[nH]c2ccccc12)NC(=O)[C@H](Cc1cnc[nH]1)NC(=O)[C@@H]1CCC(=O)N1)C(=O)N[C@@H](CCCNC(=N)N)C(=O)N1CCC[C@H]1C(=O)NNC(N)=O` [ZOLADEX®, D-Ser(tBu)^6Aza-Gly-LHRH]: the “tumors smaller with respect to the controls” value in the assay with BLM cells is 15-20%. The “number of cells that migrate in response to the chemoattractant” value in the assay with BLM melanoma cells was “significantly decreased”. In addition, the cell proliferation result in the assay with Me15392 melanoma cells is “significant and dose-dependent inhibition of cell proliferation”. In addition, the “growth of malignant gliomas” value in assay [1] is “Significant growth-inhibiting effects”. The “reduction in tumor weight” value in assay [2] (100 μg or 200 μg daily, after two weeks, both groups) came to 50%. Also, the “persistence of tumor growth inhibition despite cessation of treatment” value in assay [2] (100 μg/day or 200 μg/day) is around 4 weeks. For the same compound, the “growth inhibitory effect compared with 100 μg/day” value in assay [2] (200 μg/day) was “even more powerful growth inhibitory effect”. The “tumor growth once treatment has stopped” value in assay [2] (after two weeks (16 days) of treatment) is given as “rebound of tumor growth (flare up) is observed”. The “inhibition of BLM cell growth” value in assay [2] (mouse, in vivo) is “about 50%”. Also, the “anti-proliferative effects in tumor cells” value in assay [3] was “Significant anti-proliferative effects”.
